A word on the pIC50: it is the negative decadic logarithm of the IC50, by convention in mol/L.

pIC50: −log10 of the molar value. Some results are limits rather than exact numbers.

Results on 27 molecules are retold here after patent US20240092799A1, “MNK INHIBITORS” (Hepagene Therapeutics (HK) Limited, priority 2020, published 2024).

MNK2, sequence (Q9HBH9 whole entry): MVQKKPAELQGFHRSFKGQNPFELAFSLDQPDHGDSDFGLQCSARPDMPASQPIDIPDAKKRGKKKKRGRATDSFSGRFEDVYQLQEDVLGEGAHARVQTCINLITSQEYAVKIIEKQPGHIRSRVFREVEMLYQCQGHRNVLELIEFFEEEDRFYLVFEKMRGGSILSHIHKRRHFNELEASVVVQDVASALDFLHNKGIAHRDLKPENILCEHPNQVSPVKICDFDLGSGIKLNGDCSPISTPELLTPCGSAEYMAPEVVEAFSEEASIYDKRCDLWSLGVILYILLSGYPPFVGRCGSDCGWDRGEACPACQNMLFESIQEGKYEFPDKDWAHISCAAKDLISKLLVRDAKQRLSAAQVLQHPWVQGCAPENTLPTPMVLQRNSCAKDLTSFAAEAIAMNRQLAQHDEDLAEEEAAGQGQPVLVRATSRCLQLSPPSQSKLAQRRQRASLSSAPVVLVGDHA

The assay has as its target MNK2 (Homo sapiens (Human), UniProt Q9HBH9). Description: MNK Biochemical Enzymatic Assay (ADP-Glo), MNK2 binding assay. The procedure:
MNK Biochemical Enzymatic Assay. This protocol establishes the binding assays for MNK1 and MNK2 using ADP-Glo assay. MNK phosphorylates the substrate and converts ATP to ADP, which was detected by Envision and used to reflect the reminding activity of MNK. Reagents and equipment used in the assay are listed below, followed by the protocol.
• a) Add 50 μL compound to 384-well dilution plate • b) Dilute compound 1:3 in succession in DMSO for each column for 10+0 pts (refer to dilution plate map) • c) Transfer 0.1 μL diluted compound solution in each row to 384 assay plate using Echo, each column containing 2 replicates (refer to assay plate map) • d) Add 5 μL enzyme working solution to 384-well assay plate, centrifuge 1000 RPM for 1 min • e) Incubate at 25° C. for 15 min • f) Add 5 μL substrate working solution to initiate reaction • g) Incubate at 25° C. for 60 min • h) Add 10 μL ADP Glo reagent, centrifuge 1000 RPM for 1 min • i) Incubate at 25° C. for 60 min • j) Add 20 μL kinase detection reagent, centrifuge 1000 RPM for 1 min • k) Incubate at 25° C. for 60 min • l) Read on Envision for US LUM as RLU • m) Data analysis: IC50s were determined based on a non-linear regression analysis of data collected.
(In ADP-Glo the light output rises with the ADP produced.)
Molecule `Cc1nc(Nc2cc(C)c3c([n+]2[O-])C2(CCCCC2)NC3=O)cc(N[C@H]2CCOC2)n1` [Compound XXIX-AY, (S)-4′-methyl-2′-((2-methyl-6-((tetrahydrofuran-3-yl)amino)pyrimidin-4-yl)amino)-5′-oxo-5′,6′-dihydrospiro[cyclohexane-1,7′-pyrrolo[3,4-b]pyridine] 1′-oxide] gave a negative logarithm of the IC50 (pIC50) of 7.00 to 8.00.
`CNc1cc(Nc2cc3c(s2)C(=O)NC32CCCCC2)ncn1` [Compound XXIII, 2′-((6-(Methylamino)pyrimidin-4-yl)amino)spiro[cyclohexane-1,4′-thieno[2,3-c]pyrrol]-6′(5′H)-one] showed a negative logarithm of the IC50 (pIC50) of 7.00 to 8.00.
Molecule `Cc1cc(Nc2cc(Nc3ccnn3C3CCNCC3)ncn2)[n+]([O-])c2c1C(=O)NC21CCCCC1` [Compound XXIX-AAR, 4′-methyl-5′-oxo-2′-((6-((1-(piperidin-4-yl)-1H-pyrazol-5-yl)amino)pyrimidin-4-yl)amino)-5′,6′-dihydrospiro[cyclohexane-1,7′-pyrrolo[3,4-b]pyridine] 1′-oxide] showed a negative-log IC50 (pIC50) of 8.00 to 10.00.
As for `Cc1cc(Nc2ncnc3[nH]ccc23)[n+]([O-])c2c1C(=O)NC21CCCCC1` [Compound XXIX-F, 2′-((7H-pyrrolo[2,3-d]pyrimidin-4-yl)amino)-4′-methyl-5′-oxo-5′,6′-dihydrospiro[cyclohexane-1,7′-pyrrolo[3,4-b]pyridine] 1′-oxide], the pIC50 was 8.00 to 10.00.
As for `COc1c(NC(=O)C2CC2)ncnc1Nc1cc2c(s1)C(=O)NC21CCCCC1` [Compound XX-B, N-(5-Methoxy-6-((6′-oxo-5′,6′-dihydrospiro[cyclohexane-1,4′-thieno[2,3-c]pyrrol]-2′-yl)amino)pyrimidin-4-yl)cyclopropanecarboxamide], the negative logarithm of the IC50 (pIC50) was 6.00 to 7.00.
The result for `Cc1cccnc1Nc1cc(Nc2cc(C)c3c([n+]2[O-])C2(CCCCC2)NC3=O)ncn1` [Compound XXIX-AZ, 4′-methyl-2′-((6-((3-methylpyridin-2-yl)amino)pyrimidin-4-yl)amino)-5′-oxo-5′,6′-dihydrospiro[cyclohexane-1,7′-pyrrolo[3,4-b]pyridine] 1′-oxide] reads 7.00 to 8.00.
Regarding `Cc1cc(Nc2cc(Nc3ccc(C4=CCOCC4)cn3)ncn2)[n+]([O-])c2c1C(=O)NC21CCCCC1` [Compound XXIX-AAS, 2′-((6-((5-(3,6-dihydro-2H-pyran-4-yl)pyridin-2-yl)amino)pyrimidin-4-yl)amino)-4′-methyl-5′-oxo-5′,6′-dihydrospiro[cyclohexane-1,7′-pyrrolo[3,4-b]pyridine] 1′-oxide], the pIC50 was 8.00 to 10.00.
On to `Cc1cc(Nc2cc(N[C@H]3CCNC3)ncn2)[n+]([O-])c2c1C(=O)NC21CCCCC1` [Compound XXIX-S, (S)-4′-methyl-5′-oxo-2′-((6-(pyrrolidin-3-ylamino)pyrimidin-4-yl)amino)-5′,6′-dihydrospiro[cyclohexane-1,7′-pyrrolo[3,4-b]pyridine] 1′-oxide], for which the pIC50 is 7.00 to 8.00.
The molecule `Cc1cc(Nc2cc(NC3CNC3)ncn2)[n+]([O-])c2c1C(=O)NC21CCCCC1` [Compound XXIX-Q, 2′-((6-(azetidin-3-ylamino)pyrimidin-4-yl)amino)-4′-methyl-5′-oxo-5′,6′-dihydrospiro[cyclohexane-1,7′-pyrrolo[3,4-b]pyridine] 1′-oxide] had a pIC50 of 7.00 to 8.00.
As for `O=C1NC2(CCCCC2)c2cc(Nc3cc(N[C@@H]4CCOC4)ncn3)sc21` [Compound XXIV-M, (R)-2′-((6-((tetrahydrofuran-3-yl)amino)pyrimidin-4-yl)amino)spiro[cyclohexane-1,4′-thieno[2,3-c]pyrrol]-6′(5′H)-one], the figure is 7.00 to 8.00.
For the molecule `O=C1NC2(CCCCC2)c2cc(Nc3cc(NCc4cccs4)ncn3)sc21` [Compound XXIV, 2′-((6-((Thiophen-2-ylmethyl)amino)pyrimidin-4-yl)amino)spiro[cyclohexane-1,4′-thieno[2,3-c]pyrrol]-6′(5′H)-one], the pIC50 was 7.00 to 8.00.
As for `O=C1NC2(CCCCC2)c2cc(Nc3cc(NCC4CCCO4)ncn3)sc21` (stereo not drawn) [Compound XXIII-Q, 2′-((6-(((tetrahydrofuran-2-yl)methyl)amino)pyrimidin-4-yl)amino)spiro[cyclohexane-1,4′-thieno[2,3-c]pyrrol]-6′(5′H)-one], the pIC50 was 7.00 to 8.00.
Regarding `Cc1cc(Nc2cc(N[C@@H]3CCC[C@H]3O)ncn2)[n+]([O-])c2c1C(=O)NC21CCCCC1` [Compound XXIX-X, 2′-((6-(((1R,2R)-2-hydroxycyclopentyl)amino)pyrimidin-4-yl)amino)-4′-methyl-5′-oxo-5′,6′-dihydrospiro[cyclohexane-1,7′-pyrrolo[3,4-b]pyridine] 1′-oxide], the negative-log IC50 (pIC50) was 7.00 to 8.00.
The result for `O=C1NC2(CCCCC2)c2cc(Nc3ncnc4sc5c(c34)CCC(C(=O)N3CCC3)C5)sc21` (stereo not drawn) [Compound XXV-D, 2′-((7-(azetidine-1-carbonyl)-5,6,7,8-tetrahydrobenzo[4,5]thieno[2,3-d]pyrimidin-4-yl)amino)spiro[cyclohexane-1,4′-thieno[2,3-c]pyrrol]-6′(5′H)-one] reads 7.00 to 8.00; that for `O=C1NC2(CCCCC2)c2cc(Nc3cc(Nc4ccccc4)ncn3)sc21` [Compound XXIII-B, 2′-((6-(Phenylamino)pyrimidin-4-yl)amino)spiro[cyclohexane-1,4′-thieno[2,3-c]pyrrol]-6′(5′H)-one], 7.00 to 8.00; that for `Cc1cc(Nc2cc(N[C@@H]3CCC[C@@H]3O)ncn2)[n+]([O-])c2c1C(=O)NC21CCCCC1` [Compound XXIX-W, 2′-((6-(((1R,2S)-2-hydroxycyclopentyl)amino)pyrimidin-4-yl)amino)-4′-methyl-5′-oxo-5′,6′-dihydrospiro[cyclohexane-1,7′-pyrrolo[3,4-b]pyridine] 1′-oxide], 6.00 to 7.00.
The result for `O=C1NC2(CCCCC2)c2cc(Nc3ccncn3)sc21` [Compound X-A, 2′-(pyrimidin-4-ylamino)spiro[cyclohexane-1,4′-thieno[2,3-c]pyrrol]-6′(5′H)-one] reads 7.00 to 8.00.
The result for `Cc1cc(Nc2cc(N[C@H]3CC[C@@H](O)C3)ncn2)[n+]([O-])c2c1C(=O)NC21CCCCC1` (relative stereo) [Compound XXIX-Y, 2′-((6-((cis-3-hydroxycyclopentyl)amino)pyrimidin-4-yl)amino)-4′-methyl-5′-oxo-5′,6′-dihydrospiro[cyclohexane-1,7′-pyrrolo[3,4-b]pyridine] 1′-oxide] reads 7.00 to 8.00.
For `O=C1NC2(CCCCC2)c2nc(Nc3ccnc(Nc4ccccn4)c3)sc21` [Compound XXVIII-J, 2′-((2-(pyridin-2-ylamino)pyridin-4-yl)amino)spiro[cyclohexane-1,4′-pyrrolo[3,4-d]thiazol]-6′(5′H)-one], the pIC50 was 7.00 to 8.00.
The molecule `Nc1ncnc(Nc2cc3c(s2)C(=O)NC32CCCCC2)c1Cl` [Compound XX, 2′-((6-Amino-5-chloropyrimidin-4-yl)amino)spiro[cyclohexane-1,4′-thieno[2,3-c]pyrrol]-6′(5′H)-one] had a pIC50 of 7.00 to 8.00.
Consider `Cc1cc(Nc2ncnc3[nH]cnc23)[n+]([O-])c2c1C(=O)NC21CCCCC1` [Compound XXIX-O, 2′-((9H-purin-6-yl)amino)-4′-methyl-5′-oxo-5′,6′-dihydrospiro[cyclohexane-1,7′-pyrrolo[3,4-b]pyridine] 1′-oxide], for which the pIC50 is 7.00 to 8.00.
For the molecule `O=C1NC2(CCCCC2)c2cc(Nc3cc(Nc4cccnc4)ncn3)sc21` [Compound XXIII-Z], the pIC50 was 7.00 to 8.00.
On to `Cc1cc(Nc2cc(Nc3ccccc3F)ncn2)[n+]([O-])c2c1C(=O)NC21CCCCC1` [Compound XXIX-AI, 2′-((6-((2-fluorophenyl)amino)pyrimidin-4-yl)amino)-4′-methyl-5′-oxo-5′,6′-dihydrospiro[cyclohexane-1,7′-pyrrolo[3,4-b]pyridine] 1′-oxide], for which the pIC50 is 7.00 to 8.00.
The result for `CC1(C)COC(Nc2cc(Nc3nc4c(s3)C(=O)NC43CCCCC3)ncn2)=N1` [Compound XXVIII-E, 2′-((6-((4,4-dimethyl-4,5-dihydrooxazol-2-yl)amino)pyrimidin-4-yl)amino)spiro[cyclohexane-1,4′-pyrrolo[3,4-d]thiazol]-6′(5′H)-one] reads less than 6.00; that for `Cc1cc(Nc2cc(NCC3CCCO3)ncn2)[n+]([O-])c2c1C(=O)NC21CCCCC1` (stereo not drawn) [Compound XXIX-P, 4′-methyl-5′-oxo-2′-((6-(((tetrahydrofuran-2-yl)methyl)amino)pyrimidin-4-yl)amino)-5′,6′-dihydrospiro[cyclohexane-1,7′-pyrrolo[3,4-b]pyridine] 1′-oxide], 7.00 to 8.00.
As for `Cc1cc(Nc2cc(NC3CCS(=O)(=O)C3)ncn2)[n+]([O-])c2c1C(=O)NC21CCCCC1` (stereo not drawn) [Compound XXIX-AR, 2′-((6-((1,1-dioxidotetrahydrothiophen-3-yl)amino)pyrimidin-4-yl)amino)-4′-methyl-5′-oxo-5′,6′-dihydrospiro[cyclohexane-1,7′-pyrrolo[3,4-b]pyridine] 1′-oxide], the figure is 6.00 to 7.00; as for `O=C1NC2(CCCCC2)c2cc(Nc3cc(N[C@@H]4CCCOC4)ncn3)sc21` [Compound XXIV-F, (R)-2′-((6-((tetrahydro-2H-pyran-3-yl)amino)pyrimidin-4-yl)amino)spiro[cyclohexane-1,4′-thieno[2,3-c]pyrrol]-6′(5′H)-one], 7.00 to 8.00.
